Where “and” joins values, the source holds several entries; their conditions need not be identical. Equal entries are not always repeated. Where two headings read alike, the source gives them in different places.
What was measured:
[1] = system: HeLa; experiment: Antiproliferative MTT assay, HeLa; type: cell-based, human; conditions: 72 h, mean ± SE
Procedure: (§1) Human T-cell leukemia (Jurkat) and human B-cell leukemia (SEM and RS4;11) cells were grown in RPMI-1640 medium (Gibco, Milano, Italy). Breast adenocarcinoma (MCF-7), human cervix carcinoma (HeLa), human lung adenocarcinoma (A549) and human colon adenocarcinoma (HT-29) cells were grown in DMEM medium (Gibco, Milano, Italy), all supplemented with 115 units/mL penicillin G (Gibco, Milano, Italy), 115 μg/mL streptomycin (Invitrogen, Milano, Italy), and 10% fetal bovine serum (FBS; Invitrogen, Milano, Italy). Stock solutions (10 mM) of the different compounds were obtained by dissolving them in DMSO. Individual wells of a 96-well tissue culture microtiter plate were inoculated with 100 μL of complete medium containing 8 × 10^3 cells. The plates were incubated at 37 °C in a humidified 5% CO2 incubator for 18 h prior to the experiments. After medium removal, 100 μL of fresh medium containing the test compound at different concentrations was added to each well in triplicate and incubated at 37 °C for 72 h. The percentage of DMSO in the medium never exceeded 0.25%. This was also the maximum DMSO concentration in all cell-based assays described below.

[2] = system: A549; experiment: Antiproliferative MTT assay, A549; type: cell-based, human; conditions: mean ± SE
Procedure: as §1

[3] = system: HT-29; experiment: Antiproliferative MTT assay, HT-29; type: cell-based, human; conditions: mean ± SE
Procedure: as §1

[4] = system: MCF-7; experiment: Antiproliferative MTT assay, MCF-7; type: cell-based, human; conditions: mean ± SE
Procedure: as §1

[5] = system: Jurkat; experiment: Antiproliferative MTT assay, Jurkat; type: cell-based, human; conditions: 72 h, mean ± SE
Procedure: as §1

[6] = system: RS 4;11; experiment: Antiproliferative MTT assay, RS 4;11; type: cell-based, human; conditions: mean ± SE
Procedure: as §1

[7] = system: SEM cells; experiment: Antiproliferative MTT assay, SEM; type: cell-based, human; conditions: 72 h, mean ± SE
Procedure: as §1

[8] = system: panel of seven human tumor cell lines; experiment: Antiproliferative activity, range over panel of seven human tumor cell lines; type: cell-based
Procedure: as §1

[9] = system: BL6-B16 murine melanoma cells; experiment: Mouse allograft tumor model (BL6-B16 melanoma); type: in vivo
Source text: Animal experiments were approved by our local animal ethics committee (OPBA, Organismo Preposto al Benessere degli Animali, Università degli Studi di Brescia, Italy) and were executed in accordance with national guidelines and regulations. Procedures involving animals and their care conformed with institutional guidelines that comply with national and international laws and policies (EEC Council Directive 86/609, OJ L 358, 12 December 1987) and with “ARRIVE” guidelines (Animals in Research Reporting In Vivo Experiments). Six week old C57BL/6 mice (Charles River, Calco) were injected subcutaneously into the dorsolateral flank with 2.5x10^5 BL6-B16 murine melanoma cells in 200 μL of PBS. When tumors were palpable, animals were treated intraperitoneally every other day with different doses of test compounds dissolved in 50 μL of DMSO. Tumors were measured in two dimensions, and tumor volume was calculated according to the formula V = (D × d^2)/2, where D and d are the major and minor perpendicular tumor diameters, respectively.

[10] = system: panel of five cancer cell lines; design: method as in PMID 23117171; conditions: read-out: IC50 range (Figure 1); cited from earlier work
[11] = system: bovine brain tubulin; experiment: Inhibition of tubulin polymerization; type: biochemical; conditions: tubulin at 10 μM; read-out: Tubulin assembly IC50 ± S.D
Procedure: (§2) To evaluate the effect of the compounds on tubulin assembly in vitro[41], varying concentrations of compounds were preincubated with 10 μM bovine brain tubulin in 0.8 M monosodium glutamate (pH adjusted to 6.6 with HCl in a 2.0 M stock solution) at 30 °C and then cooled to 0 °C. After addition of 0.4 mM GTP, the mixtures were transferred to 0 °C cuvettes in a recording spectrophotometer and warmed to 30 °C. Tubulin assembly was followed turbidimetrically at 350 nm. […] The capacity of the test compounds to inhibit colchicine binding to tubulin was measured as described, except that the reaction mixtures contained 1 μM tubulin, 5 μM [^3H]colchicine and 1 or 5 μM test compound.

[12] = system: tubulin; experiment: Inhibition of [3H]colchicine binding to tubulin; conditions: tubulin 1 μM, [3H]colchicine 5 μM
Procedure: as §2

[13] = Homo sapiens, read-out: IC50 values, range over the cell line panel

Row | Molecule | IC50 ([1]; Homo sapiens, HeLa) [nM] | IC50 ([2]; Homo sapiens, A549, 72 h) [nM] | IC50 ([3]; Homo sapiens, HT-29, 72 h) [nM] | IC50 ([4]; Homo sapiens, MCF7, 72 h) [nM] | IC50 ([5]; Homo sapiens, Jurkat) [nM] | IC50 [11] [nM] | Colchicine binding % inhibition ± S.D, 5 μM drug [12] | melting point [°C] | IC50 ([6]; Homo sapiens, RS4-11, 72 h) [nM] | IC50 ([7]; Homo sapiens) [nM] | also measured
1 | 5-(3,4,5-Trimethoxyphenyl)-4-(3-methoxyphenyl)-2-methyloxazole [Compound 4f] | – | – | – | – | – | – | – | – | – | – | IC50 [1]: > 10000 nM; IC50 ([2]; 72 h): > 10000 nM; IC50 ([3]; 72 h): > 10000 nM; IC50 ([4]; 72 h): > 10000 nM; IC50 [5]: 5230 ± 88.2 nM; IC50 ([6]; 72 h): 5330 ± 167 nM; IC50 [7]: 3630 ± 171 nM
2 | 5-(3,4,5-Trimethoxyphenyl)-4-(4-chlorophenyl)-2-methyloxazole [Compound 4c] | – | – | – | – | – | – | – | – | – | – | IC50 [1]: 2820 ± 169 nM; IC50 ([2]; 72 h): 8780 ± 2310 nM; IC50 ([3]; 72 h): 1400 ± 384 nM; IC50 ([4]; 72 h): 2590 ± 447 nM; IC50 [5]: 5580 ± 888 nM; IC50 ([6]; 72 h): 840 ± 260 nM; IC50 [7]: 2210 ± 256 nM
3 | 5-(3,4,5-Trimethoxyphenyl)-4-(4-fluorophenyl)-2-methyloxazole [Compound 4b] | – | – | – | – | – | – | – | – | – | – | IC50 [1]: > 10000 nM; IC50 ([2]; 72 h): > 10000 nM; IC50 ([3]; 72 h): > 10000 nM; IC50 ([4]; 72 h): > 10000 nM; IC50 [5]: > 10000 nM; IC50 ([6]; 72 h): > 10000 nM; IC50 [7]: 9550 ± 2050 nM; IC50 ([8]; read-out: IC50 values against all cell lines screened): > 9000 nM
4 | COc1ccc(/C=C\c2cc(OC)c(OC)c(OC)c2)cc1OP(=O)(O)O [CA-4P, CA-4 disodium phosphate, reference compound] | – | – | – | – | – | – | – | – | – | – | reduction in tumor mass [9]: 28.0%
5 | COc1cc(-c2nc(C)sc2-c2ccc(C)cc2)cc(OC)c1OC [Compound 3a] | – | – | – | – | – | – | – | – | – | – | IC50 [10]: 520 to 1900 nM
6 | COc1ccc(-c2sc(C)nc2-c2cc(OC)c(OC)c(OC)c2)cc1 [Compound 3b] | – | – | – | – | – | – | – | – | – | – | IC50 [10]: 500 to 3400 nM
7 | CCOc1ccc(-c2sc(C)nc2-c2cc(OC)c(OC)c(OC)c2)cc1 [Compound 3c] | – | – | – | – | – | – | – | – | – | – | IC50 [10]: 43 to 3300 nM
8 | COc1cc(-c2nc(C)sc2-c2ccc3ccccc3c2)cc(OC)c1OC [Compound 3d] | – | – | – | – | – | – | – | – | – | – | IC50 [10]: 33 to 700 nM
9 | COc1cc(-c2nc(C)oc2-c2ccc(C)cc2)cc(OC)c1OC [Compound 4d, 4-(3,4,5-Trimethoxyphenyl)-2-methyl-5-p-tolyloxazole] | 31 ± 16 | 92.3 ± 21.5 | 53 ± 24.6 | 244 ± 74.2 | 102 ± 22.6 | 660 | 86% and 82 ± 3% | 110 to 112 | 25.3 ± 3.2 | 134 ± 39.5 | Colchicine binding % inhibition ± S.D, 1 μM drug [12]: 55 ± 3%; IC50 [8, 13]: 25 to 243 nM
10 | COc1ccc(-c2oc(C)nc2-c2cc(OC)c(OC)c(OC)c2)cc1 [Compound 4e, 4-(3,4,5-Trimethoxyphenyl)-5-(4-methoxyphenyl)-2-methyloxazole] | 10.8 ± 4.7 | 179 ± 36.3 | 40.8 ± 19.7 | 27.7 ± 12 | 18.7 ± 6 | 950 ± 100 | 78 ± 3% | 134 to 136 | 7.6 ± 2.3 | 35.6 ± 12.5 | Colchicine binding % inhibition ± S.D, 1 μM drug [12]: 47 ± 4%
11 | COc1ccc(-c2oc(C)nc2-c2cc(OC)c(OC)c(OC)c2)cc1Cl [Compound 4h, 5-(3-Chloro-4-methoxyphenyl)-4-(3,4,5-trimethoxyphenyl)-2-methyloxazole] | 169 ± 75.5 | 138 ± 13.7 | 207 ± 93 | 144 ± 64.3 | 512 ± 92.7 | – | – | 150 to 152 | 47 ± 13.9 | 233 ± 34.6 | –
12 | COc1cc(-c2oc(C)nc2-c2ccc(Cl)cc2)cc(OC)c1OC [Compound 5c, 4-(4-Chlorophenyl)-5-(3,4,5-trimethoxyphenyl)-2-methyloxazole] | 2560 ± 475 | > 10000 | > 10000 | > 10000 | 5250 ± 0.934 | – | – | 149 to 151 | 815 ± 406 | 6570 ± 500 | –
13 | COc1cc(-c2oc(C)nc2-c2ccc(C)cc2)cc(OC)c1OC [Compound 5d, 5-(3,4,5-Trimethoxyphenyl)-2-methyl-4-p-tolyloxazole] | 148 ± 55.3 | 2580 ± 289 | 523 ± 61.8 | 360 ± 52.6 | 922 ± 76.6 | – | – | 128 to 129 | 635 ± 387 | 352 ± 77.8 | –

The next lines start with results.

Row | IC50 ([1]; Homo sapiens, HeLa) [nM] | IC50 ([2]; Homo sapiens, A549, 72 h) [nM] | IC50 ([3]; Homo sapiens, HT-29, 72 h) [nM] | IC50 ([4]; Homo sapiens, MCF7, 72 h) [nM] | IC50 ([5]; Homo sapiens, Jurkat) [nM] | IC50 [11] [nM] | Colchicine binding % inhibition ± S.D, 5 μM drug [12] | melting point [°C] | Molecule | IC50 ([6]; Homo sapiens, RS4-11, 72 h) [nM] | IC50 ([7]; Homo sapiens) [nM] | also measured
14 | 1980 ± 780 | 2760 ± 1200 | 3700 ± 263 | 1930 ± 448 | 7200 ± 586 | – | – | – | COc1ccc(-c2nc(C)sc2-c2cc(OC)c(OC)c(OC)c2)cc1 [Compound 3e, 2-methyl-4-(4′-methoxyphenyl)-5-(3′,4’,5′-trimethoxyphenyl)thiazole, reference compound] | 2970 ± 738 | 1980 ± 780 | –
15 | 2.4 ± 0.6 | 0.65 ± 0.08 | 3.3 ± 1.1 | 2.5 ± 0.7 | 4.6 ± 1 | 1200 | 78 ± 0.5% | 127 to 129 | COc1ccc(-c2oc(C)nc2-c2cc(OC)c(OC)c(OC)c2)cc1F [Compound 4g, 5-(3-Fluoro-4-methoxyphenyl)-4-(3,4,5-trimethoxyphenyl)-2-methyloxazole] | 0.35 ± 0.15 | 3.9 ± 0.8 | Colchicine binding % inhibition ± S.D, 1 μM drug [12]: 51 ± 1%; IC50 [8, 13]: 0.35 to 4.6 nM
16 | 4.2 ± 1.3 | 20.3 ± 11.4 | 0.9 ± 0.5 | 1.5 ± 0.6 | 77.7 ± 6.1 | 1800 ± 100 | 53 ± 3% | 124 to 126 | CCOc1ccc(-c2oc(C)nc2-c2cc(OC)c(OC)c(OC)c2)cc1Cl [Compound 4j, 5-(3-Chloro-4-ethoxyphenyl)-4-(3,4,5-trimethoxyphenyl)-2-methyloxazole] | 20.2 ± 5.4 | 51 ± 13.5 | –
17 | 37 ± 14.4 | 45.2 ± 12.5 | 315 ± 145 | 5.2 ± 2.4 | 638 ± 154 | 1600 ± 100 | 64 ± 4% | 95 to 97 | COc1cc(-c2oc(C)nc2-c2ccc3ccccc3c2)cc(OC)c1OC [Compound 5a, 5-(3,4,5-Trimethoxyphenyl)-2-methyl-4-(naphthalen-3-yl)oxazole] | 250 ± 89.3 | – | –
18 | > 10000 | > 10000 | > 10000 | > 10000 | 9000 ± 577 | – | – | 132 to 133 | COc1cc(-c2oc(C)nc2-c2ccc(F)cc2)cc(OC)c1OC [Compound 5b, 4-(4-Fluorophenyl)-5-(3,4,5-trimethoxyphenyl)-2-methyloxazole] | > 10000 | > 10000 | IC50 ([8]; Homo sapiens, read-out: IC50 values against all cell lines screened): > 9000 nM
19 | 24 ± 10.5 | 243 ± 51.5 | 12.3 ± 5.9 | 83.8 ± 20.2 | 43.6 ± 12.3 | 2600 ± 300 | 54 ± 3% | 108 to 110 | COc1ccc(-c2nc(C)oc2-c2cc(OC)c(OC)c(OC)c2)cc1 [Compound 5e, 5-(3,4,5-Trimethoxyphenyl)-4-(4-methoxyphenyl)-2-methyloxazole] | 17.3 ± 4.2 | 96.6 ± 22.5 | –

— publication PMC5390315 (Scientific Reports, 2017)
